molecular target: KV7.2/3 channel (Homo sapiens, UniProt O43525+O43526); experiment: KV7.2/3 channel opening assay (thallium-sensitive fluorescence); type: cell-based; conditions: HEK293 cells overexpressing KV7.2/3; footnote e
Protocol: To evaluate the biological activity, the synthesized analogues were tested on HEK293 cells overexpressing the KV7.2/3 channel. The measurement was carried out in a fluorescence-based assay in which a thallium-sensitive dye generated the fluorescence signal. Due to its similarity to potassium, thallium can also pass through KV7 channels. The intensity of the fluorescence signal correlates with the amount of intracellular thallium and thus with the ability of the compounds to open KV7 channels. To determine the potency, the fluorescence intensity was measured as a function of the compound concentration. The efficacy was determined relative to the maximum fluorescence signal induced by flupirtine. For a summary of the activity data, see Table 2.
The cell culture of the KV7.2/3 transfected HEK293 cells (HEK293 KCNQ2/3 cells from SB Drug Discovery, Glasgow, UK) used for the assay and the processing of the obtained data were performed as described in earlier work.[27],[29] Briefly, 60,000 cells/well were seeded into 96-well microtiter plates for fluorescence-based assays (4titude Vision Plate Black 96-Well microtiter plates from ThermoScientic) and incubated for 24 h. After incubation, the medium was changed to 200 μL/well loading buffer containing 5 mmol/L probenecid and incubated for 1 h at room temperature. Subsequently, the test compounds dissolved in DMSO were added to the wells to the desired concentrations and further incubated for 30 min. As a control, the loading buffer with a DMSO concentration corresponding to the substance samples (1% (V/V)) was used. Fluorescence measurements were performed on the Infinite F200 Pro plate reader (Tecan) set at […]/emission wavelengths of 485 and 535 nm, respectively. After measuring the background fluorescence (baseline) for 20 s, a stimulus buffer (25 mmol/L K^+, 15 mmol/L Tl^+) was added just before the fluorescence of each well was measured.
The calculations to obtain dose–response curves were performed in the same manner as in previous investigations.[27],[29] Briefly, the fluorescence intensity was normalized with the baseline signal (F/F0) at each time of signal acquisition. To obtain the corrected negative control, a value of 1 was subtracted from the normalized value of the negative control. Subsequently, the value of the corrected negative control was subtracted from the maximum (corr. F/F0) value of a compound in a defined concentration (corr. ΔF/F0) and then plotted against the logarithmic concentration. The EC50 value was calculated as relative values with GraphPad Prism 6 (La Jolla, CA, USA), that is, the inflection points of the sigmoidal curves. The Emax value, the maximum response, indicates the intrinsic activity of a compound. This value was determined relative to flupirtine (1), where the maximum corr. ΔF/F0 value of flupirtine (1) was defined as 100%. The EC50 and Emax value of a compound is the mean of at least three independent experiments ± standard deviation (SD).

Sequence of KV7.2/3 channel (O43526 whole entry): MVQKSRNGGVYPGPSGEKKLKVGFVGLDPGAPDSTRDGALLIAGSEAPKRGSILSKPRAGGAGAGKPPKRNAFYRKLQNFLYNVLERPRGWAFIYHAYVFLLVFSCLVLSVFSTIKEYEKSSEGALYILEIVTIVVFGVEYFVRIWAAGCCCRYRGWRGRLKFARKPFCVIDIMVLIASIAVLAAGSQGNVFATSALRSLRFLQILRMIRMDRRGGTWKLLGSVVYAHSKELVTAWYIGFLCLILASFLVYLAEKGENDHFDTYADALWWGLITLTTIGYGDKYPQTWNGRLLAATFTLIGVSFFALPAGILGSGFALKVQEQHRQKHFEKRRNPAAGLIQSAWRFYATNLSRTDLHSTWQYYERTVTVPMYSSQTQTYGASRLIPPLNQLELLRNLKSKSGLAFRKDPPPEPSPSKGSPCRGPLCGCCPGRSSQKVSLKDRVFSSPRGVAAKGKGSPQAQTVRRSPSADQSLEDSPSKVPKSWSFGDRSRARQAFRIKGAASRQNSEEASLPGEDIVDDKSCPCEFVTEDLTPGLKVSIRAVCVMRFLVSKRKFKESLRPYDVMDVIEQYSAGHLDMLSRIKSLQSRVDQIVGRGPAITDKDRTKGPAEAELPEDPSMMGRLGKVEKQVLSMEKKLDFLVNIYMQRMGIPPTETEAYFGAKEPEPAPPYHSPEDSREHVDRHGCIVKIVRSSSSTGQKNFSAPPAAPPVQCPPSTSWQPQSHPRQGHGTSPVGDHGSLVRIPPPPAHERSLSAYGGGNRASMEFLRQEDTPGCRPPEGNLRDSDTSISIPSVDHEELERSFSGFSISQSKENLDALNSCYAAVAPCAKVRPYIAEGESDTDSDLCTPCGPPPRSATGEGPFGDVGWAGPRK
Sequence of KV7.2/3 channel (O43525 whole entry): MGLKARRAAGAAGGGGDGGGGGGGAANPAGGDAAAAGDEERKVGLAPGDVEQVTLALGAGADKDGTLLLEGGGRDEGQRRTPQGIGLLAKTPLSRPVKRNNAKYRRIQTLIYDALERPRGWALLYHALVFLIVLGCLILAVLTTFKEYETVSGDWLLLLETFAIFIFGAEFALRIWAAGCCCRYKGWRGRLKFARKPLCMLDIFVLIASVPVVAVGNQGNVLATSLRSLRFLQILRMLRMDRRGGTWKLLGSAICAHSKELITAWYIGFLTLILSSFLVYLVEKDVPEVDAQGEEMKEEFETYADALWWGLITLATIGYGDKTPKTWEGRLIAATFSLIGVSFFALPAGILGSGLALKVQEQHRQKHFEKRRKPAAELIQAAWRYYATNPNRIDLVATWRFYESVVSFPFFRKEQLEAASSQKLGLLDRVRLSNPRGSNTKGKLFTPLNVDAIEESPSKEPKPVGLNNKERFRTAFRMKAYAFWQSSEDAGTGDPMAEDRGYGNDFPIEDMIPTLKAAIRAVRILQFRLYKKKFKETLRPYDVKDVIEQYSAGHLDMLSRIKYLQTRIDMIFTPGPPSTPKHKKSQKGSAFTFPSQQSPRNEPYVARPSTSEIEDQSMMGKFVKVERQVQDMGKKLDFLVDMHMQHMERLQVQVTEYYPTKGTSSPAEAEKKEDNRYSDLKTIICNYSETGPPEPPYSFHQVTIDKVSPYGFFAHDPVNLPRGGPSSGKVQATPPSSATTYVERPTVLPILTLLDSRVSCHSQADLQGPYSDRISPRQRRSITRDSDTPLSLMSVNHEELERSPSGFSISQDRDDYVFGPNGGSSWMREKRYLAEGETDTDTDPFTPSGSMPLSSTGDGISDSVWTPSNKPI

SMILES | EC50 [µM]
COc1cc(NCc2ccc(F)cc2)ccc1C(=O)NCC(C)C [28a, 4-[(4-Fluorobenzyl)amino]-N-isobutyl-2-methoxybenzamide] | > 10
COc1cc(NCc2ccc(F)cc2)ccc1C(=O)NCc1ccc(F)cc1 [28b, N-(4-Fluorobenzyl)-4-[(4-fluorobenzyl)amino]-2-methoxybenzamide] | > 10
Cc1cc(N2CCOCC2)nc(N2CCOCC2)c1CNC(=O)c1ccc(F)cc1 [55a, 4-Fluoro-N-[(4-methyl-2,6-dimorpholinopyridin-3-yl)methyl]benzamide] | > 10

same assay, conditions: inactive = no channel opening activity detected up to a concentration of 10 μM

SMILES | KV7.2/3 channel opening activity (in words)
COc1cc(NCc2ccc(F)cc2)ccc1C(=O)NCC(C)C [28a, 4-[(4-Fluorobenzyl)amino]-N-isobutyl-2-methoxybenzamide] | inactive
COc1cc(NCc2ccc(F)cc2)ccc1C(=O)NCc1ccc(F)cc1 [28b, N-(4-Fluorobenzyl)-4-[(4-fluorobenzyl)amino]-2-methoxybenzamide] | inactive
Cc1cc(N2CCOCC2)nc(N2CCOCC2)c1CNC(=O)c1ccc(F)cc1 [55a, 4-Fluoro-N-[(4-methyl-2,6-dimorpholinopyridin-3-yl)methyl]benzamide] | inactive

system: TAMH cells; experiment: MTT cell viability assay, TAMH cells; conditions: TAMH cells, MTT assay, 24 h exposure; 25% reduction of viability
Excerpt: (§1) In addition to the activity, basic toxicological properties of the newly synthesized compounds were also investigated by using the 3-(4,5-dimethylthiazol-2-yl)-2,5-diphenyltetrazolium bromide (MTT) cell viability assay on mouse TAMH and human HEP-G2 hepatic cell lines (see Table 2). Both cell lines are established for the evaluation of hepatotoxicity.[42],[43]
(§2) The culturing of the mouse liver TAMH and human liver cancer HEP-G2 cell lines and the MTT assay used to evaluate cell viability were carried out as previously described elsewhere in detail.[27],[29] […] The medium in the wells was then replaced with the medium containing the compounds. Control wells contained an equivalent number of cells and 1% (v/v) DMSO. Wells without cells were used to determine the background optical density (OD) and were treated as the control wells. After 24 or 48 h of incubation with the compound, the respective medium was replaced with a fresh medium supplemented with 10% (v/v) of a 2.5 mg/mL solution of MTT. The plates were incubated for 4 h. Then, the culture medium was carefully aspirated off and 50 μL of DMSO was added to each well to dissolve the formazan crystals. The ODs of each well were measured at λ = 570 nm with a SpectraMax 190 microplate reader.
(§3) The calculated T/Ccorr. values were plotted against the log(concentration). The LD50 and LD25 values were determined by using GraphPad Prism 6. […] The values are given as the mean with SD of at least three independent experiments.

SMILES | LD25 [µM]
COc1cc(NCc2ccc(F)cc2)ccc1C(=O)NCC(C)C [28a, 4-[(4-Fluorobenzyl)amino]-N-isobutyl-2-methoxybenzamide] | 43 ± 27
COc1cc(NCc2ccc(F)cc2)ccc1C(=O)NCc1ccc(F)cc1 [28b, N-(4-Fluorobenzyl)-4-[(4-fluorobenzyl)amino]-2-methoxybenzamide] | >8
Cc1cc(N2CCOCC2)nc(N2CCOCC2)c1CNC(=O)c1ccc(F)cc1 [55a, 4-Fluoro-N-[(4-methyl-2,6-dimorpholinopyridin-3-yl)methyl]benzamide] | 22 ± 7

same assay, conditions: TAMH cells, MTT assay, 24 h exposure; 50% reduction of viability

SMILES | LD50 [µM]
COc1cc(NCc2ccc(F)cc2)ccc1C(=O)NCC(C)C [28a, 4-[(4-Fluorobenzyl)amino]-N-isobutyl-2-methoxybenzamide] | >63
COc1cc(NCc2ccc(F)cc2)ccc1C(=O)NCc1ccc(F)cc1 [28b, N-(4-Fluorobenzyl)-4-[(4-fluorobenzyl)amino]-2-methoxybenzamide] | >8
Cc1cc(N2CCOCC2)nc(N2CCOCC2)c1CNC(=O)c1ccc(F)cc1 [55a, 4-Fluoro-N-[(4-methyl-2,6-dimorpholinopyridin-3-yl)methyl]benzamide] | >31

system: HEP-G2 cells; experiment: MTT cell viability assay, HEP-G2 cells; conditions: HEP-G2 cells, MTT assay, 24 h exposure; 25% reduction of viability
Excerpt: as §1, §2, §3

SMILES | LD25 [µM]
COc1cc(NCc2ccc(F)cc2)ccc1C(=O)NCC(C)C [28a, 4-[(4-Fluorobenzyl)amino]-N-isobutyl-2-methoxybenzamide] | 31 ± 13
COc1cc(NCc2ccc(F)cc2)ccc1C(=O)NCc1ccc(F)cc1 [28b, N-(4-Fluorobenzyl)-4-[(4-fluorobenzyl)amino]-2-methoxybenzamide] | >8
Cc1cc(N2CCOCC2)nc(N2CCOCC2)c1CNC(=O)c1ccc(F)cc1 [55a, 4-Fluoro-N-[(4-methyl-2,6-dimorpholinopyridin-3-yl)methyl]benzamide] | 22 ± 6

same assay, conditions: HEP-G2 cells, MTT assay, 24 h exposure; 50% reduction of viability

SMILES | LD50 [µM]
COc1cc(NCc2ccc(F)cc2)ccc1C(=O)NCC(C)C [28a, 4-[(4-Fluorobenzyl)amino]-N-isobutyl-2-methoxybenzamide] | 42 ± 7
COc1cc(NCc2ccc(F)cc2)ccc1C(=O)NCc1ccc(F)cc1 [28b, N-(4-Fluorobenzyl)-4-[(4-fluorobenzyl)amino]-2-methoxybenzamide] | >8
Cc1cc(N2CCOCC2)nc(N2CCOCC2)c1CNC(=O)c1ccc(F)cc1 [55a, 4-Fluoro-N-[(4-methyl-2,6-dimorpholinopyridin-3-yl)methyl]benzamide] | >31

system: not listed separately; experiment: log D7.4 estimation by HPLC-based method; type: physicochemical; conditions: HPLC, Phenomenex Luna 5 μm Phenyl-Hexyl column, pH 7.4, HPLC, calibration A1; read-out: logD7.4
Protocol: The log D7.4 values were estimated using a common HPLC-based method in accordance with guideline OPPTS 830.7570 of the United States Environmental Protection Agency (EPA). The HPLC measurements were performed with a Phenomenex Luna 5 μm Phenyl-Hexyl 100 Å column (150 × 4.6 mm). […]. Uracil was used to measure the unretained peak time. To obtain a calibration function, the logarithm of the capacity factors for the reference substances was then plotted against the corresponding log P values taken from the mentioned guideline, which are equivalent to the log D7.4 values for non-ionizable compounds like the reference substances used for calibration. With this calibration function, it was possible to estimate the log D7.4 value from the corresponding retention time for each compound to be tested. For the measurement, 2 mg of the reference substances was each dissolved in 1 mL of methanol. A reference mixture was then obtained by combining 50 μL of each reference solution. The reference mixture was measured before and after the substances to be tested. The mean value from both measurements was used for the calibration line. The substances to be tested were injected as a solution in methanol (2 mg/mL), and the retention time was determined as the mean value from two measurements.

SMILES | chromatographic logD
Cc1cc(N2CCOCC2)nc(N2CCOCC2)c1CNC(=O)c1ccc(F)cc1 [55a, 4-Fluoro-N-[(4-methyl-2,6-dimorpholinopyridin-3-yl)methyl]benzamide] | 3.45

same assay, conditions: HPLC, Phenomenex Luna 5 μm Phenyl-Hexyl column, pH 7.4, HPLC, calibration B1; read-out: logD7.4

SMILES | chromatographic logD
Cc1cc(N2CCOCC2)nc(N2CCOCC2)c1CNC(=O)c1ccc(F)cc1 [55a, 4-Fluoro-N-[(4-methyl-2,6-dimorpholinopyridin-3-yl)methyl]benzamide] | 3.46

same assay, conditions: HPLC, Phenomenex Luna 5 μm Phenyl-Hexyl column, pH 7.4, HPLC, calibration C; read-out: logD7.4

SMILES | chromatographic logD
COc1cc(NCc2ccc(F)cc2)ccc1C(=O)NCC(C)C [28a, 4-[(4-Fluorobenzyl)amino]-N-isobutyl-2-methoxybenzamide] | 3.79
COc1cc(NCc2ccc(F)cc2)ccc1C(=O)NCc1ccc(F)cc1 [28b, N-(4-Fluorobenzyl)-4-[(4-fluorobenzyl)amino]-2-methoxybenzamide] | 4.28

same assay, conditions: HPLC, Phenomenex Luna 5 μm Phenyl-Hexyl column, pH 7.4, HPLC, calibration D; read-out: logD7.4

SMILES | chromatographic logD
COc1cc(NCc2ccc(F)cc2)ccc1C(=O)NCC(C)C [28a, 4-[(4-Fluorobenzyl)amino]-N-isobutyl-2-methoxybenzamide] | 3.79
COc1cc(NCc2ccc(F)cc2)ccc1C(=O)NCc1ccc(F)cc1 [28b, N-(4-Fluorobenzyl)-4-[(4-fluorobenzyl)amino]-2-methoxybenzamide] | 4.29

same assay, conditions: HPLC, Phenomenex Luna 5 μm Phenyl-Hexyl column, pH 7.4, HPLC, mean of two calibrations; read-out: logD7.4 (mean)

SMILES | chromatographic logD
COc1cc(NCc2ccc(F)cc2)ccc1C(=O)NCC(C)C [28a, 4-[(4-Fluorobenzyl)amino]-N-isobutyl-2-methoxybenzamide] | 3.8
COc1cc(NCc2ccc(F)cc2)ccc1C(=O)NCc1ccc(F)cc1 [28b, N-(4-Fluorobenzyl)-4-[(4-fluorobenzyl)amino]-2-methoxybenzamide] | 4.3
Cc1cc(N2CCOCC2)nc(N2CCOCC2)c1CNC(=O)c1ccc(F)cc1 [55a, 4-Fluoro-N-[(4-methyl-2,6-dimorpholinopyridin-3-yl)methyl]benzamide] | 3.5

same assay, conditions: HPLC, Phenomenex Luna 5 μm Phenyl-Hexyl column, pH 7.4, estimated by HPLC-based method, pH 7.4; read-out: log D7.4

SMILES | chromatographic logD
COc1cc(NCc2ccc(F)cc2)ccc1C(=O)NCC(C)C [28a, 4-[(4-Fluorobenzyl)amino]-N-isobutyl-2-methoxybenzamide] | 3.8
COc1cc(NCc2ccc(F)cc2)ccc1C(=O)NCc1ccc(F)cc1 [28b, N-(4-Fluorobenzyl)-4-[(4-fluorobenzyl)amino]-2-methoxybenzamide] | 4.3
Cc1cc(N2CCOCC2)nc(N2CCOCC2)c1CNC(=O)c1ccc(F)cc1 [55a, 4-Fluoro-N-[(4-methyl-2,6-dimorpholinopyridin-3-yl)methyl]benzamide] | 3.5
